According to US20180214428A1, “3-(1H-INDOL-2-YL)-1H-PYRAZOLO[3,4-B]PYRIDINES AND THERAPEUTIC USES THEREOF” (Samumed, LLC, priority 2015, published 2018):

Legend:
[1] = tested on: primary human mesenchymal stem cells (hMSCs); assay: Induction of chondrogenesis in primary human mesenchymal stem cells; type: cell-based; details: 6 days; for Emax / EC50: Homo sapiens, Mesenchymal stem cells, 144 h; for Emax: read-out: Max. Activity as % TGF-β3 activity; for EC50: concentration required to induce 50% levels of chondrogenesis vs TGF-β3, read-out: Conc (nM) of 50% TGF-β3 activity
Procedure: Representative compounds were screened using primary human mesenchymal stem cells (hMSCs) to determine their ability to induce chondrogenesis (process by which cartilage is developed).
Primary human mesenchymal stem cells (hMSCs) were purchased from Lonza (Walkersville, Md.) and expanded in Mesenchymal Stem Cell Growth Media (Lonza). Cells between passage 3 and 6 were used for the experiments.
Each compound was dissolved in DMSO as a 10 mM stock and used to prepare compound source plates. Serial dilution (1:3, 6-point dose-response curves from 2700 nM to 10 nM) and compound transfer was performed using the ECHO 550 (Labcyte, Sunnyvale, Calif.) into 96-well clear bottom assay plates (Greiner Bio-One) with appropriate DMSO backfill for a final DMSO concentration of 0.03%. hMSCs were plated at 20,000 cells/well in 250 μL/well Incomplete Chondrogenic Induction Medium (Lonza; DMEM, dexamethasone, ascorbate, insulin-transferrin-selenium [ITS supplement], gentamycin-amphotericin [GA-1000], sodium pyruvate, proline and L-glutamine). TGF-β3 (10 ng/mL) was used as a positive control for differentiation while negative control wells were treated with 75 nL DMSO for normalization and calculating EC50 values. Cells were incubated at 37° C. and 5% CO2 for 6 days. To image chondrogenic nodules, the cells were fixed using 4% formaldehyde (Electron Microscopy Sciences), and stained with 2 μg/mL Rhodamine B (Sigma-Aldrich) and 20 μM Nile Red (Sigma-Aldrich) [Johnson K., et. al, A Stem Cell-Based Approach to Cartilage Repair, Science, (2012). 336(6082), 717-721]. The nodules imaged (4 images per well at 4× magnification) by excitation at 531 nm and emission at 625 nm and quantified using the CellInsight CX5 (Thermo Scientific). Number of nodules in each well was normalized to the average of 3 DMSO treated wells on the same plate using Excel (Microsoft Inc.). The normalized averages (fold change over DMSO) of 3 replicate wells for each compound concentration were calculated. Due to solubility limitations of some of the compounds, curve fitting was incomplete leading to inaccurate EC50 determinations.
Using TGF-β3 as a positive control, the concentration of representative compounds required to induce 50% levels of chondrogenesis is reported. In addition, the maximum activity of each compound and the respective dose that each compound reached maximum chondrogenesis activity is reported.

[2] = tested on: primary human fibroblasts derived from IPF patients (LL29 cells); assay: Inhibition of the fibrotic process: αSMA staining in TGF-β1 treated LL29 fibroblasts; type: cell-based; details: for EC50: TGF-β1 20 ng/mL, 4 days, % αSMA positive cells
In short: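 IPF patient-derived LL29 fibroblasts in 1% FBS medium got compound (11-point, 10 μM to 1.87 nM, 0.1% DMSO) plus TGF-β1 20 ng/mL, 4 days at 37° C. αSMA-positive live cells (SYTOX-excluded) were imaged, normalized to TGF-β1 controls and fitted for EC50; % inhibition at 10 μM given when EC50 >10 μM.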

[3] = chondrogenic nodules, TGF-β3 (10 ng/mL) positive control

EC50 [1] [nM] | SMILES | Emax [1, 3] [%] | EC50 ([2]; Homo sapiens, Fibroblast, 96 h) [nM] | Max. Activity as % TGF-β3 activity [1, 3] [%] | Conc (nM) of Max. activity ([1]; chondrogenic nodules, dose at which maximum chondrogenesis activity was reached) [nM] | EC50 [2] [nM] | percent inhibition at 10 μM ([2]; at 10 μM, given for EC50 of >10 μM, TGF-β1, αSMA) [%]
900 | CC(C)(C)CC(=O)Nc1cncc(-c2cnc3[nH]nc(-c4cc5c(-c6ccccn6)cccc5[nH]4)c3c2)c1 [Compound 133, 3,3-Dimethyl-N-(5-(3-(4-(pyridin-2-yl)-1H-indol-2-yl)-1H-pyrazolo[3,4-b]pyridin-5-yl)pyridin-3-yl)butanamide] | 345 | 753 |  |  |  | 
300 | CN1CCN(c2cccc3[nH]c(-c4n[nH]c5ncc(-c6cncc(CN7CCCCC7)c6)cc45)cc23)CC1 [Compound 215, 3-(4-(4-Methylpiperazin-1-yl)-1H-indol-2-yl)-5-(5-(piperidin-1-ylmethyl)pyridin-3-yl)-1H-pyrazolo[3,4-b]pyridine] | 51 | 1760 |  |  |  | 
100 | CN1CCN(c2cccc3[nH]c(-c4n[nH]c5ncc(-c6cncc(NC(=O)C7CCCC7)c6)cc45)cc23)CC1 [Compound 222, N-(5-(3-(4-(4-Methylpiperazin-1-yl)-1H-indol-2-yl)-1H-pyrazolo[3,4-b]pyridin-5-yl)pyridin-3-yl)cyclopentanecarboxamide] | 408 | 790 |  |  |  | 
10 | c1ccc2[nH]c(-c3n[nH]c4ncc(-c5cncc(CN6CCCC6)c5)cc34)cc2c1 [Compound 240, 3-(1H-Indol-2-yl)-5-(5-(pyrrolidin-1-ylmethyl)pyridin-3-yl)-1H-pyrazolo[3,4-b]pyridine] | 98 | 859 |  |  |  | 
30 | FC1(F)CCN(Cc2cncc(-c3cnc4[nH]nc(-c5cc6c(-c7ccoc7)cccc6[nH]5)c4c3)c2)C1 [Compound 308, 5-(5-((3,3-Difluoropyrrolidin-1-yl)methyl)pyridin-3-yl)-3-(4-(furan-3-yl)-1H-indol-2-yl)-1H-pyrazolo[3,4-b]pyridine] | 72 | 3210 |  |  |  | 
900 | CN(C)CCNc1cc(F)cc(-c2cccc3[nH]c(-c4n[nH]c5ncc(-c6cncc(N)c6)cc45)cc23)c1 [Compound 425, N^1-(3-(2-(5-(5-Aminopyridin-3-yl)-1H-pyrazolo[3,4-b]pyridin-3-yl)-1H-indol-4-yl)-5-fluorophenyl)-N^2,N^2-dimethylethane-1,2-diamine] | 101 | 332 |  |  |  | 
900 | CN(C)CCNc1cc(F)cc(-c2cccc3[nH]c(-c4n[nH]c5ncc(-c6cncc(CN7CCCCC7)c6)cc45)cc23)c1 [Compound 437, N^1-(3-Fluoro-5-(2-(5-(5-(piperidin-1-ylmethyl)pyridin-3-yl)-1H-pyrazolo[3,4-b]pyridin-3-yl)-1H-indol-4-yl)phenyl)-N^2,N^2-dimethylethane-1,2-diamine] | 175 | 5440 |  |  |  | 
100 | CN(C)CCNc1cc(F)cc(-c2cccc3[nH]c(-c4n[nH]c5ncc(-c6cncc(NC(=O)C7CCC7)c6)cc45)cc23)c1 [Compound 443, N-(5-(3-(4-(3-((2-(Dimethylamino)ethyl)amino)-5-fluorophenyl)-1H-indol-2-yl)-1H-pyrazolo[3,4-b]pyridin-5-yl)pyridin-3-yl)cyclobutanecarboxamide] | 78 | 990 |  |  |  | 
100 | CN(C)Cc1cncc(-c2cnc3[nH]nc(-c4cc5c(-c6cc(F)cc(CNS(C)(=O)=O)c6)cccc5[nH]4)c3c2)c1 [Compound 463, N-(3-(2-(5-(5-((Dimethylamino)methyl)pyridin-3-yl)-1H-pyrazolo[3,4-b]pyridin-3-yl)-1H-indol-4-yl)-5-fluorobenzyl)methane sulfonamide] | 65 | 2030 |  |  |  | 

Continued, molecule first:

SMILES | EC50 [1] [nM] | Emax [1, 3] [%] | EC50 ([2]; Homo sapiens, Fibroblast, 96 h) [nM] | Max. Activity as % TGF-β3 activity [1, 3] [%] | Conc (nM) of Max. activity ([1]; chondrogenic nodules, dose at which maximum chondrogenesis activity was reached) [nM] | EC50 [2] [nM] | percent inhibition at 10 μM ([2]; at 10 μM, given for EC50 of >10 μM, TGF-β1, αSMA) [%]
CCCCC(=O)Nc1cncc(-c2cnc3[nH]nc(-c4cc5c(-c6ccccn6)cccc5[nH]4)c3c2)c1 [Compound 136, N-(5-(3-(4-(Pyridin-2-yl)-1H-indol-2-yl)-1H-pyrazolo[3,4-b]pyridin-5-yl)pyridin-3-yl)pentanamide] |  | 41 | 2670 |  |  |  | 
c1ccc(-c2cccc3[nH]c(-c4n[nH]c5ncc(-c6cncnc6)cc45)cc23)nc1 [Compound 143, 3-(4-(Pyridin-2-yl)-1H-indol-2-yl)-5-(pyrimidin-5-yl)-1H-pyrazolo[3,4-b]pyridine] |  | 25 | 4960 |  |  |  | 
CCNCc1cncc(-c2cnc3[nH]nc(-c4cc5c(N6CCCCC6)cccc5[nH]4)c3c2)c1 [Compound 150, N-((5-(3-(4-(Piperidin-1-yl)-1H-indol-2-yl)-1H-pyrazolo[3,4-b]pyridin-5-yl)pyridin-3-yl)methyl)ethanamine] | 30 | 91 | 2740 |  |  |  | 
CN(C)c1cncc(-c2cnc3[nH]nc(-c4cc5c(N6CCCCC6)cccc5[nH]4)c3c2)c1 [Compound 151, N,N-Dimethyl-5-(3-(4-(piperidin-1-yl)-1H-indol-2-yl)-1H-pyrazolo[3,4-b]pyridin-5-yl)pyridin-3-amine] |  | 22 | 1630 |  |  |  | 
CCCC(=O)Nc1cncc(-c2cnc3[nH]nc(-c4cc5ccccc5[nH]4)c3c2)c1 [Compound 243, N-(5-(3-(1H-Indol-2-yl)-1H-pyrazolo[3,4-b]pyridin-5-yl)pyridin-3-yl) butyramide] |  | 28 | 210 |  |  |  | 
CC(C)CC(=O)Nc1cncc(-c2cnc3[nH]nc(-c4cc5c(-c6cc(F)cc(NCCN(C)C)c6)cccc5[nH]4)c3c2)c1 [Compound 424, N-(5-(3-(4-(3-((2-(Dimethylamino)ethyl)amino)-5-fluorophenyl)-1H-indol-2-yl)-1H-pyrazolo[3,4-b]pyridin-5-yl)pyridin-3-yl)-3-methylbutanamide] |  | 63 | 350 |  |  |  | 
CCNCc1cncc(-c2cnc3[nH]nc(-c4cc5c(-c6cc(F)cc(NCCN(C)C)c6)cccc5[nH]4)c3c2)c1 [Compound 428, N^1-(3-(2-(5-(5-((Ethylamino)methyl)pyridin-3-yl)-1H-pyrazolo[3,4-b]pyridin-3-yl)-1H-indol-4-yl)-5-fluorophenyl)-N^2,N^2-dimethylethane-1,2-diamine] |  | 74 | 1250 |  |  |  | 
CC(C)Nc1cncc(-c2cnc3[nH]nc(-c4cc5c(-c6cc(F)cc(NCCN(C)C)c6)cccc5[nH]4)c3c2)c1 [Compound 434, N^1-(3-Fluoro-5-(2-(5-(5-(isopropylamino)pyridin-3-yl)-1H-pyrazolo[3,4-b]pyridin-3-yl)-1H-indol-4-yl)phenyl)-N^2,N^2-dimethylethane-1,2-diamine] |  | 56 | 1440 |  |  |  | 
CN(C)CCNc1cc(F)cc(-c2cccc3[nH]c(-c4n[nH]c5ncc(-c6ccncc6)cc45)cc23)c1 [Compound 440] |  |  |  | 31 | 2700 | > 10000 | 0
CN(C)CCNc1cc(F)cc(-c2cccc3[nH]c(-c4n[nH]c5ncc(-c6cncnc6)cc45)cc23)c1 [Compound 449, N^1-(3-Fluoro-5-(2-(5-(pyrimidin-5-yl)-1H-pyrazolo[3,4-b]pyridin-3-yl)-1H-indol-4-yl)phenyl)-N^2,N^2-dimethylethane-1,2-diamine] |  | 17 | 1160 |  |  |  | 
CS(=O)(=O)NCc1cc(F)cc(-c2cccc3[nH]c(-c4n[nH]c5ncc(-c6cncc(N)c6)cc45)cc23)c1 [Compound 453, N-(3-(2-(5-(5-Aminopyridin-3-yl)-1H-pyrazolo[3,4-b]pyridin-3-yl)-1H-indol-4-yl)-5-fluorobenzyl)methanesulfonamide] | 900 | 189 | 370 |  |  |  | 
CN(C)CCOc1cncc(-c2cnc3[nH]nc(-c4cc5c(-c6cccnc6)cccc5[nH]4)c3c2)c1 [Compound 565, N,N-Dimethyl-2-((5-(3-(4-(pyridin-3-yl)-1H-indol-2-yl)-1H-pyrazolo[3,4-b]pyridin-5-yl)pyridin-3-yl)oxy)ethan-1-amine] |  | 46 | 1930 |  |  |  | 
